Source: patent US10065941B2, “Aminotriazine derivative and pharmaceutical composition comprising the same” (Shionogi & Co., Ltd., priority 2013, dated 2018)

Target: human P2X3 receptor (Homo sapiens (Human), UniProt P56373)
Experiment: Evaluation of human P2X3 receptor inhibitory activity (Test Example 1)
Assay type: cell-based
Conditions: C6BU-1 cell transfected with human P2X3 receptor gene, FLIPR 384
Summary of the method: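 C6BU-1 cells stably expressing human P2X3, loaded with 4 μM Fluo-3-AM 1 h at 37 °C, preincubated 5 min with test compound, then stimulated with 150 nM ATP solution (stock, pre-dispense) and monitored by FLIPR for 4 min. IC50 derived from maximum fluorescence ratio (post-ATP peak over baseline).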

Sequence of human P2X3 receptor (P56373 whole entry): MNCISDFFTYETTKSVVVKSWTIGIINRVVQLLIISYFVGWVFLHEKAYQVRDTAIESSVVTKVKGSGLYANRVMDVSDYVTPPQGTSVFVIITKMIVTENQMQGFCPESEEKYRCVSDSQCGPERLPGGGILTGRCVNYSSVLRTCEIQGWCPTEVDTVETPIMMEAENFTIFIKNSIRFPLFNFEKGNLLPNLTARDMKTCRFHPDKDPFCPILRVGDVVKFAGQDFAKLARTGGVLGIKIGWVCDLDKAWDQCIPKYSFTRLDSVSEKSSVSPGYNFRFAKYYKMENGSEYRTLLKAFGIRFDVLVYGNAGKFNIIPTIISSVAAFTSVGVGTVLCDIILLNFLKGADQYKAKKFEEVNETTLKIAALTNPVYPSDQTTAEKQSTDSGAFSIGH

Work on `COC(=O)C(C)(C)Cn1c(=O)[nH]/c(=N\c2ccc(Oc3ccc(Cl)cn3)cc2)n(Cc2ccc(Cl)cc2)c1=O` [Compound I-004] yielded an IC50 of 14 nM.
`CCn1c(=O)[nH]/c(=N\c2ccc(Oc3ccc(Cl)nc3C(=O)O)cc2)n(Cc2ccc(Cl)cc2)c1=O` [Compound R-169] was tested, and the IC50 was 304 nM.
`COC(=O)[C@H](C)[C@H](C)n1c(=O)[nH]/c(=N\c2ccc(Oc3ccc(F)cn3)cc2)n(Cc2ccc(C)cc2)c1=O` [Compound I-103] was tested, and the IC50 was 7 nM.
`COC(=O)[C@@H](C)Cn1c(=O)[nH]/c(=N\c2ccc(Oc3cccc(Cl)n3)cc2)n(Cc2ccc(Cl)cc2)c1=O` [Compound I-011] gave an IC50 of 18 nM.
Compound `C[C@@H](Cn1c(=O)[nH]/c(=N\c2ccc(Oc3ncccn3)c(F)c2)n(Cc2ccc(Cl)cc2)c1=O)C(=O)O` [Compound R-164] has an IC50 of 10 nM.
`Cc1ccc(Cn2c(=O)n(C[C@H](C)C(=O)O)c(=O)[nH]/c2=N\c2ccc(Oc3ccccn3)c(C)c2)cc1` [Compound I-213] gave an IC50 of 12 nM.
`CC(C)(Cn1c(=O)[nH]/c(=N\c2ccc(Oc3ccc(OC(F)F)cn3)cc2)n(Cc2ccc(Cl)cc2)c1=O)C(=O)O` [Compound I-023] showed an IC50 of 7 nM.
`C[C@@H](Cn1c(=O)[nH]/c(=N\c2ccc(Oc3ncccc3F)cc2)n(Cc2ccc(C(F)F)cc2)c1=O)C(=O)O` [Compound I-169] gave an IC50 of 21 nM.
In the case of `Cc1ccc(Cn2c(=O)n([C@H](C)CC(=O)O)c(=O)[nH]/c2=N\c2ccc(Oc3ccccn3)cc2)cc1` [Compound I-187], the IC50 is reported as 8 nM.
Compound `COC(=O)CCn1c(=O)[nH]/c(=N\c2ccc(-n3ccccc3=O)cc2)n(Cc2ccc(Cl)cc2)c1=O` [Compound R-227] has an IC50 of 35 nM.
Compound `COC(=O)[C@@H](C)Cn1c(=O)[nH]/c(=N\c2ccc(Oc3cccc(C(F)(F)F)n3)cc2)n(Cc2ccc(C)cc2)c1=O` [Compound I-035] has an IC50 of 12 nM.
Work on `CC(C)(Cn1c(=O)[nH]/c(=N\c2ccc(Oc3cccnn3)c(F)c2)n(Cc2ccc(Cl)cc2)c1=O)C(=O)O` [Compound R-038] yielded an IC50 of 7 nM.
Work on `COC(=O)C(C)(C)Cn1c(=O)[nH]/c(=N\c2ccc(Oc3cccc(F)n3)cc2)n(Cc2ccc(Cl)cc2)c1=O` [Compound I-008] yielded an IC50 of 7 nM.
With `CC(=O)c1ccc(Oc2ccc(/N=c3\[nH]c(=O)n(C[C@H](C)C(=O)O)c(=O)n3Cc3ccc(C)cc3)cc2)nc1` [Compound I-260] the IC50 was 5 nM.
Work on `COC(=O)[C@@H](C)Cn1c(=O)[nH]/c(=N\c2ccc(Oc3ncccc3F)cc2)n(Cc2ccc(F)cc2F)c1=O` [Compound I-024] yielded an IC50 of 34 nM.
Compound `C[C@@H](Cn1c(=O)[nH]/c(=N\c2ccc(Oc3ccccn3)cc2)n(CC2CC3(CCC3)C2)c1=O)C(=O)O` [Compound I-263] has an IC50 of 5 nM.
`CCOC(=O)[C@H]1C[C@@H](n2c(=O)[nH]/c(=N\c3ccc(Oc4ccccn4)cc3)n(Cc3ccc(C)cc3)c2=O)C1` [Compound I-181] was tested, and the IC50 was 5 nM.
`Cc1ccc(Cn2c(=O)n(CC(C)(C)C(=O)O)c(=O)[nH]/c2=N\c2ccc(Oc3ncccc3Cl)cc2)cc1` [Compound I-118] was tested, and the IC50 was 9 nM.
For `C[C@@H](Cn1c(=O)[nH]/c(=N\c2ccc(Oc3ccnc(Cl)c3)cc2)n(Cc2ccc(Cl)cc2)c1=O)C(=O)O` [Compound R-088], the IC50 was 6 nM.
For `Cc1ccc(Cn2c(=O)n([C@H](C)CC(=O)O)c(=O)[nH]/c2=N\c2ccc(Oc3ccc(F)cn3)cc2)cc1` [Compound I-191], the IC50 was 11 nM.
Work on `COC(=O)C(C)(C)Cn1c(=O)[nH]/c(=N\c2ccc(Oc3ccc(C)cn3)cc2)n(Cc2ccc(C)cc2)c1=O` [Compound I-110] yielded an IC50 of 4 nM.
`COC(=O)[C@@H](C)Cn1c(=O)[nH]/c(=N\c2ccc(Oc3cc(OC)ccn3)cc2)n(Cc2ccc(Cl)cc2)c1=O` [Compound I-139] gave an IC50 of 10 nM.
With `CCc1oc2ccc(/N=c3\[nH]c(=O)n(C[C@H](C)C(=O)O)c(=O)n3Cc3ccc(C)cc3)cc2c1C` [Compound R-222] the IC50 was 9 nM.
In the case of `O=C(Cn1c(=O)[nH]/c(=N\c2ccc(Oc3ccccn3)cc2)n(Cc2ccc(Cl)cc2)c1=O)NCC(F)(F)F` [Compound R-243], the IC50 is reported as 4 nM.
For `C[C@@H](Cn1c(=O)[nH]/c(=N\c2ccc(Oc3ccc(F)nn3)cc2)n(Cc2ccc(Cl)cc2)c1=O)C(=O)O` [Compound R-196], the IC50 was 11 nM.
`C[C@@H](Cn1c(=O)[nH]/c(=N\c2ccc(Oc3cccnn3)cc2)n(Cc2ccc(Cl)cc2)c1=O)C(=O)O` [Compound R-120] showed an IC50 of 8 nM.
`COC(=O)[C@H](C)[C@H](C)n1c(=O)[nH]/c(=N\c2ccc(Oc3cncc(F)c3)c(F)c2)n(Cc2ccc(Cl)cc2)c1=O` [Compound R-187] gave an IC50 of 21 nM.
`COC(=O)C(C)(C)Cn1c(=O)[nH]/c(=N\c2ccc(Oc3ccccn3)cc2)n(Cc2ccc(Cl)cc2)c1=O` [Compound I-149] was tested, and the IC50 was 5 nM.
`CCc1oc2ccc(/N=c3\[nH]c(=O)n([C@H]4C[C@H](C(=O)O)C4)c(=O)n3Cc3ccc(Cl)cc3)cc2c1C` [Compound R-023] gave an IC50 of 21 nM.
With `CCc1[nH]c2ccc(/N=c3\[nH]c(=O)n(CC(C)(C)C(=O)OC)c(=O)n3Cc3ccc(Cl)cc3)cc2c1C` [Compound R-069] the IC50 was 51 nM.
Work on `C[C@@H](Cn1c(=O)[nH]/c(=N\c2ccc(Oc3cc(Cl)ncn3)cc2)n(Cc2ccc(Cl)cc2)c1=O)C(=O)O` [Compound R-124] yielded an IC50 of 9 nM.
In the case of `Cc1ccc(Cn2c(=O)n(CC(C)(C)C(=O)O)c(=O)[nH]/c2=N\c2ccc(Oc3ccc(F)cn3)cc2)cc1` [Compound I-041], the IC50 is reported as 9 nM.
`COC(=O)C(C)(C)Cn1c(=O)[nH]/c(=N\c2ccc(N3CCOCC3)c(F)c2)n(Cc2ccc(Cl)cc2)c1=O` [Compound R-107] showed an IC50 of 217 nM.
`CC(C)(Cn1c(=O)[nH]/c(=N\c2ccc(Oc3ccc(F)cn3)cc2)n(Cc2ccc(Cl)cc2)c1=O)C(=O)O` [Compound I-005] gave an IC50 of 8 nM.
Work on `Cc1ccc(Cn2c(=O)n([C@H]3C[C@@H](C(=O)O)C3)c(=O)[nH]/c2=N\c2ccc(Oc3ccc(Cl)cn3)cc2)cc1` [Compound I-179] yielded an IC50 of 6 nM.
Work on `COC(=O)CCn1c(=O)[nH]/c(=N\c2ccc(Oc3ccc(C(C)O)cn3)cc2)n(Cc2ccc(Cl)cc2)c1=O` (stereo not drawn) [Compound R-304] yielded an IC50 of 4 nM.
`COCc1ccc(Oc2ccc(/N=c3\[nH]c(=O)n(C[C@H](C)C(=O)O)c(=O)n3Cc3ccc(Cl)cc3)cc2)nc1` [Compound I-241] was tested, and the IC50 was 8 nM.
For `O=c1[nH]/c(=N\c2ccc(Oc3ccccn3)cc2)n(Cc2ccc(Cl)cc2)c(=O)n1CCCO` [Compound R-251, 1-(4-chlorobenzyl)-3-(3-hydroxypropyl)-6-[4-(2-pyridyloxy)phenylimino]-1,3,5-triazinane-2,4-dione], the IC50 was 5 nM.
For `Cc1ccc(Cn2c(=O)n([C@H]3C[C@H](C(=O)O)C3)c(=O)[nH]/c2=N\c2ccc(Oc3ccccn3)cc2)cc1` [Compound I-184], the IC50 was 6 nM.
`Cc1ccc(Oc2ccc(/N=c3\[nH]c(=O)n([C@@H](C)[C@@H](C)C(=O)O)c(=O)n3Cc3ccc(Cl)cc3)cc2)nc1` [Compound I-074] was tested, and the IC50 was 5 nM.
With `C[C@@H](Cn1c(=O)[nH]/c(=N\c2ccc(Oc3ccncc3)cc2)n(Cc2ccc(Cl)cc2)c1=O)C(=O)O` [Compound R-208] the IC50 was 5 nM.
`COC(=O)C(C)(C)Cn1c(=O)[nH]/c(=N\c2ccc(Oc3cccc(Cl)n3)cc2)n(Cc2ccc(C)cc2)c1=O` [Compound I-116] was tested, and the IC50 was 7 nM.
`COC(=O)[C@@H](C)Cn1c(=O)[nH]/c(=N\c2ccc(Oc3ccc(F)cn3)cc2)n(CC2CC3(CCC3)C2)c1=O` [Compound I-269] showed an IC50 of 4 nM.
In the case of `COC(=O)[C@H](C)[C@H](C)n1c(=O)[nH]/c(=N\c2ccc(Oc3ccccn3)c(C)c2)n(Cc2ccc(Cl)cc2)c1=O` [Compound I-226], the IC50 is reported as 38 nM.
`CCc1[nH]c2ccc(/N=c3\[nH]c(=O)n([C@@H](C)[C@@H](C)C(=O)OC)c(=O)n3Cc3ccc(Cl)cc3)cc2c1C` [Compound R-127] showed an IC50 of 90 nM.
With `Cc1cc(/N=c2\[nH]c(=O)n(C[C@H](C)C(=O)O)c(=O)n2Cc2ccc(Cl)cc2)ccc1N1CCCCC1` [Compound R-142] the IC50 was 69 nM.
Compound `COC(=O)[C@@H](C)Cn1c(=O)[nH]/c(=N\c2ccc(Oc3cncc(C)c3)cc2)n(Cc2ccc(Cl)cc2)c1=O` [Compound R-184] has an IC50 of 10 nM.
`COC(=O)[C@@H](C)Cn1c(=O)[nH]/c(=N\c2ccc(Oc3cc(C)ccn3)cc2)n(Cc2ccc(Cl)cc2)c1=O` [Compound I-076] was tested, and the IC50 was 22 nM.
`CNC(=O)CCn1c(=O)[nH]/c(=N\c2ccc(Oc3ccccn3)cc2)n(Cc2ccc(Cl)cc2)c1=O` [Compound R-230] gave an IC50 of 5 nM.
For `COC(=O)C(C)(C)Cn1c(=O)[nH]/c(=N\c2ccc(Oc3ncns3)cc2)n(Cc2ccc(Cl)cc2)c1=O` [Compound R-136], the IC50 was 6 nM.
`C[C@@H](Cn1c(=O)[nH]/c(=N\c2ccc(Oc3ccccn3)cc2)n(Cc2ccc(C(F)F)cc2)c1=O)C(=O)O` [Compound I-201] was tested, and the IC50 was 13 nM.
`C[C@@H](Cn1c(=O)[nH]/c(=N\c2ccc(Oc3ccccn3)c(Cl)c2)n(Cc2ccc(Cl)cc2)c1=O)C(=O)O` [Compound I-243] showed an IC50 of 7 nM.
`CCc1oc2ccc(/N=c3\[nH]c(=O)n([C@H]4C[C@@H](C(=O)O)C4)c(=O)n3Cc3ccc(Cl)cc3)cc2c1C` [Compound R-024] gave an IC50 of 18 nM.
`CC(C)(Cn1c(=O)[nH]/c(=N\c2ccc(Oc3ccccn3)cc2)n(Cc2ccc(Cl)cc2)c1=O)C(=O)O` [Compound I-154] gave an IC50 of 8 nM.
`COC(=O)[C@@H](C)Cn1c(=O)[nH]/c(=N\c2ccc(Oc3cnccn3)cc2)n(Cc2ccc(Cl)cc2)c1=O` [Compound R-017] showed an IC50 of 6 nM.
`COC(=O)[C@@H](C)Cn1c(=O)[nH]/c(=N\c2ccc(Oc3ccc(C(F)(F)F)cn3)cc2)n(Cc2ccc(C)cc2)c1=O` [Compound I-034] gave an IC50 of 9 nM.
`COC(=O)[C@H](C)[C@H](C)n1c(=O)[nH]/c(=N\c2ccc(Oc3ncccc3F)cc2)n(Cc2ccc(C)cc2)c1=O` [Compound I-095] showed an IC50 of 9 nM.
Work on `COC(=O)[C@@H](C)Cn1c(=O)[nH]/c(=N\c2ccc(Oc3cccnc3)cc2)n(Cc2ccc(Cl)cc2)c1=O` [Compound R-205] yielded an IC50 of 8 nM.
With `COC(=O)[C@@H](C)Cn1c(=O)[nH]/c(=N\c2ccc(Oc3ccc(C(F)(F)F)nn3)cc2)n(Cc2ccc(Cl)cc2)c1=O` [Compound R-028] the IC50 was 7 nM.
`C[C@@H](Cn1c(=O)[nH]/c(=N\c2ccc(Oc3cc(Cl)ccn3)cc2)n(Cc2ccc(Cl)cc2)c1=O)C(=O)O` [Compound I-065] showed an IC50 of 8 nM.
